Test results taken from patent publication US20260325533A1, “CDK INHIBITOR COMPOUNDS” (ALEKSIA THERAPEUTICS, INC., priority 2023, published 2026).
pIC50: −log10 of the molar value. Like-named read-outs stand apart in the source and are kept apart here.

Key:
Assay type in all cases: biochemical
CDK1/CCNB1 = CDK1/CCNB1 (Homo sapiens, UniProt P06493); test: CDK1 homogeneous time-resolved fluorescence (HTRF) kinase assay; conditions: CDK1/CCNB
How it was run: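 Kinase activity is measured as Lance signal (665 nm, or 665/615 nm ratio) from europium-labelled anti-phospho-Thr37/46 antibody binding ULight-4E-BP1 peptide. Reactions contain 0.5 nM enzyme, 1 mM ATP, 1% DMSO and run 60 min at 23 °C before EDTA quench.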

CDK2/CCNE1 = CDK2/CCNE1 (Homo sapiens, UniProt P24941); test: CDK2 homogeneous time-resolved fluorescence (HTRF) kinase assay; conditions: CDK2/CCNE
How it was run: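 Compounds were titrated 11-point, half-log from typically 10 μM against 3 nM CDK2/cyclin E1 at 1 mM ATP, with a 20 min enzyme preincubation. Phosphorylation of 50 nM ULight-4E-BP1 peptide over 60 min at 23 °C was detected by europium anti-phospho antibody TR-FRET.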

CDK6/CCND1 = CDK6/CCND1 (Homo sapiens, UniProt Q00534); test: CDK6 homogeneous time-resolved fluorescence (HTRF) kinase assay; conditions: CDK6/CCND, 1 mM ATP
How it was run: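 Enzyme pre-incubated 20 min at 23 °C with compound, then reacted 60 min at 23 °C with 1 mM ATP and 50 nM ULight-4E-BP1 (Thr37/46) peptide; 1 nM enzyme, 1% DMSO. EDTA-stopped, Eu-anti-phospho antibody TR-FRET read (665 nm or 665/615 ratio); 11-point half-log titration from 10 μM gave IC50.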

CDK4/CCND3 = CDK4/CCND3 (Homo sapiens, UniProt P11802); test: CDK4 homogeneous time-resolved fluorescence (HTRF) kinase assay; conditions: CDK4/CCND
How it was run: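 CDK4/CCND3 at 1.5 nM was preincubated with compound for 20 min at 23 °C, then reacted for 60 min with 1 mM ATP and 50 nM ULight-4E-BP1 (Thr37/46) peptide. The reaction was stopped with EDTA, and phosphorylation was read by HTRF with a Eu-anti-phospho antibody. IC50 values came from 11-point half-log titrations, typically from 10 μM.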

[1] = >250 nM, read-out: CDK1/CCNB IC50 >250 nM
[2] = 25-250 nM, read-out: CDK2/CCNE IC50, 25-250 nM
[3] = >250 nM, read-out: CDK6/CCND IC50, >250 nM
[4] = >250 nM, read-out: CDK4/CCND IC50, >250 nM
[5] = <25 nM, read-out: CDK2/CCNE IC50, <25 nM
[6] = 25-250 nM, read-out: CDK6/CCND IC50, 25-250 nM
[7] = 25-250 nM, read-out: CDK1/CCNB IC50, 25-250 nM
[8] = 25-250 nM, read-out: CDK4/CCND IC50, 25-250 nM

Chain of CDK4/CCND3 (P11802 whole entry): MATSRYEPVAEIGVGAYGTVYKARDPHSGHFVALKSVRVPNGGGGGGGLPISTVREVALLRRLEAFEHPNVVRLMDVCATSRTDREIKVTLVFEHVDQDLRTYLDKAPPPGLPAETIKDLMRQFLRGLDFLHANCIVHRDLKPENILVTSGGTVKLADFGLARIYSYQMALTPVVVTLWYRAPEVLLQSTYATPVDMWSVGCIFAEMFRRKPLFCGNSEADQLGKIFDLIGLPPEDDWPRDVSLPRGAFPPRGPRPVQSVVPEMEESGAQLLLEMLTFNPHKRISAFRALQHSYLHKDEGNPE
Chain of CDK4/CCND3 (P30281 whole entry partner): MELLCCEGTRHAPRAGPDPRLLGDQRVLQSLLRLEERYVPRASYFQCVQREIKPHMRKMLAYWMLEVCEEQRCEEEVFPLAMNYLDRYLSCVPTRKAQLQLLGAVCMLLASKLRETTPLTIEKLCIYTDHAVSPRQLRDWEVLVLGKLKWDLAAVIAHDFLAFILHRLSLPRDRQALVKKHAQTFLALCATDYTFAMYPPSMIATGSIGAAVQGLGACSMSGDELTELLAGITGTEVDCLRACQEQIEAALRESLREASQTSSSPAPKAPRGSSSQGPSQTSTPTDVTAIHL
Chain of CDK6/CCND1 (Q00534 whole entry): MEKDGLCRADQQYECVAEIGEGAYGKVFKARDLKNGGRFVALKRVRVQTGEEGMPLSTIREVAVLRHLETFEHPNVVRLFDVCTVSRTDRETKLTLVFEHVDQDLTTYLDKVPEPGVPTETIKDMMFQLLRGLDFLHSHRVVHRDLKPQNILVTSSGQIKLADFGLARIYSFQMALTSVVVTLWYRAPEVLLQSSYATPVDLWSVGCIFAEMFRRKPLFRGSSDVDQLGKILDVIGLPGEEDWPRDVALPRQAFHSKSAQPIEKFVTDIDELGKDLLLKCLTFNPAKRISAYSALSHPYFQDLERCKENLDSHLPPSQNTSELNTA
Chain of CDK6/CCND1 (P24385 whole entry partner): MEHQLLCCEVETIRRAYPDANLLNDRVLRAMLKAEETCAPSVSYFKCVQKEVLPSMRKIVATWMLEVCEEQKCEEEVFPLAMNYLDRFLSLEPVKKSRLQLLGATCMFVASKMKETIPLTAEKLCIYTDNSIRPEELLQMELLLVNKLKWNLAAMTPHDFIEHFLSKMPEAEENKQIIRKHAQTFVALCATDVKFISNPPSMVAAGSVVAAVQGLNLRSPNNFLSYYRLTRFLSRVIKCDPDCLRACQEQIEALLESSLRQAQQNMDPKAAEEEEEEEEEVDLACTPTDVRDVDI
Chain of CDK1/CCNB1 (P06493 whole entry): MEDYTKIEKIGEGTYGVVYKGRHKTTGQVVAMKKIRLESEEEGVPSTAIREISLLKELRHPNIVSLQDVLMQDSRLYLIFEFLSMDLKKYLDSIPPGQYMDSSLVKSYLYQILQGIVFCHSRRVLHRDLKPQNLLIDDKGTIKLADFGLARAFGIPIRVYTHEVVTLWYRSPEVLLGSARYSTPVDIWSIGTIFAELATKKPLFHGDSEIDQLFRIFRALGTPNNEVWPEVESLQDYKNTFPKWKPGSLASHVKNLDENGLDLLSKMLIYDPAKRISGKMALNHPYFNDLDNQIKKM
Chain of CDK1/CCNB1 (P14635 whole entry partner): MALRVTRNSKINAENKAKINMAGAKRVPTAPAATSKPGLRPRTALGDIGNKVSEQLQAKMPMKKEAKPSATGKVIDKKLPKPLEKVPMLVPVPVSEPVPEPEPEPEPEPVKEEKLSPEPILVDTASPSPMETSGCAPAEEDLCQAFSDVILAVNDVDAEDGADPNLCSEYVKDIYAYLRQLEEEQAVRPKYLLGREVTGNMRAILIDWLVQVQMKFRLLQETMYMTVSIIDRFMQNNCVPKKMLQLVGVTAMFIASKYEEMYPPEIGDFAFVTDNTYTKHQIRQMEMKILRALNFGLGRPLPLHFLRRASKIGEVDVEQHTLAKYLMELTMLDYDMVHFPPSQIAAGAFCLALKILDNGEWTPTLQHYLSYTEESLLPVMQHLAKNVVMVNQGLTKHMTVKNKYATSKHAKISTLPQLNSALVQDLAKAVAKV

| SMILES | pIC50 (CDK1/CCNB1; [1]) | pIC50 (CDK2/CCNE1; [2]) | pIC50 (CDK6/CCND1; [3]) | pIC50 (CDK4/CCND3; [4]) | pIC50 (CDK2/CCNE1; [5]) | pIC50 (CDK6/CCND1; [6]) | pIC50 (CDK1/CCNB1; [7]) | pIC50 (CDK4/CCND3; [8]) |
| --- | --- | --- | --- | --- | --- | --- | --- | --- |
| Cc1c(-c2nccc3cnc(Nc4ccc(S(=O)(=O)Nc5cccc(C(F)(F)F)c5)cc4)cc23)ccc2c1cnn2CC(C)(C)O [Ex 806, 4-((5-(1-(2-hydroxy-2-methylpropyl)-4-methyl-1H-indazol-5-yl)-2,6-naphthyridin-3-yl)amino)-N-(3-(trifluoromethyl)phenyl)benzenesulfonamide] | < 6.60 | 6.60 to 7.60 | < 6.60 | < 6.60 | – | – | – | – |
| Cc1cc(C)cc(NS(=O)(=O)c2ccc(Nc3cc4c(-c5ccc6c(cnn6CC(C)(C)O)c5C)nccc4cn3)cc2)c1 [Ex 808, N-(3,5-dimethylphenyl)-4-((5-(1-(2-hydroxy-2-methylpropyl)-4-methyl-1H-indazol-5-yl)-2,6-naphthyridin-3-yl)amino)benzenesulfonamide] | < 6.60 | 6.60 to 7.60 | < 6.60 | < 6.60 | – | – | – | – |
| Cc1c(-c2nccc3cnc(Nc4ccc(S(=O)(=O)Nc5ccc(C(C)(C)O)cn5)cc4)cc23)ccc2c1cnn2CC(C)(C)O [Ex 810, 4-((5-(1-(2-hydroxy-2-methylpropyl)-4-methyl-1H-indazol-5-yl)-2,6-naphthyridin-3-yl)amino)-N-(5-(2-hydroxypropan-2-yl)pyridin-2-yl)benzenesulfonamide] | < 6.60 | – | – | < 6.60 | > 7.60 | 6.60 to 7.60 | – | – |
| Cc1c(-c2nccc3cnc(Nc4ccc(S(=O)(=O)Nc5cccc(C(C)(C)O)n5)cc4)cc23)ccc2c1cnn2CC(C)(C)O [Ex 811, 4-((5-(1-(2-hydroxy-2-methylpropyl)-4-methyl-1H-indazol-5-yl)-2,6-naphthyridin-3-yl)amino)-N-(6-(2-hydroxypropan-2-yl)pyridin-2-yl)benzenesulfonamide] | – | – | < 6.60 | < 6.60 | > 7.60 | – | 6.60 to 7.60 | – |
| COc1ccnc(NS(=O)(=O)c2ccc(Nc3cc4c(-c5ccc6c(cnn6CC(C)(C)O)c5C)nccc4cn3)cc2)c1 [Ex 813, 4-((5-(1-(2-hydroxy-2-methylpropyl)-4-methyl-1H-indazol-5-yl)-2,6-naphthyridin-3-yl)amino)-N-(4-methoxypyridin-2-yl)benzenesulfonamide] | < 6.60 | – | – | < 6.60 | > 7.60 | 6.60 to 7.60 | – | – |
| COc1cc(NS(=O)(=O)c2ccc(Nc3cc4c(-c5ccc6c(cnn6CC(C)(C)O)c5C)nccc4cn3)cc2)nc(OC)c1 [Ex 814, N-(4,6-dimethoxypyridin-2-yl)-4-((5-(1-(2-hydroxy-2-methylpropyl)-4-methyl-1H-indazol-5-yl)-2,6-naphthyridin-3-yl)amino)benzenesulfonamide] | < 6.60 | – | < 6.60 | < 6.60 | > 7.60 | – | – | – |
| Cc1c(-c2nccc3cnc(Nc4ccc(S(=O)(=O)Nc5cccc(C(F)(F)F)n5)cc4)cc23)ccc2c1cnn2CC(C)(C)O [Ex 815, 4-((5-(1-(2-hydroxy-2-methylpropyl)-4-methyl-1H-indazol-5-yl)-2,6-naphthyridin-3-yl)amino)-N-(6-(trifluoromethyl)pyridin-2-yl)benzenesulfonamide] | – | – | < 6.60 | < 6.60 | > 7.60 | – | 6.60 to 7.60 | – |
| Cc1c(-c2nccc3cnc(Nc4ccc(S(=O)(=O)Nc5cc(C(F)(F)F)ccn5)cc4)cc23)ccc2c1cnn2CC(C)(C)O [Ex 816, 4-((5-(1-(2-hydroxy-2-methylpropyl)-4-methyl-1H-indazol-5-yl)-2,6-naphthyridin-3-yl)amino)-N-(4-(trifluoromethyl)pyridin-2-yl)benzenesulfonamide] | < 6.60 | – | < 6.60 | < 6.60 | > 7.60 | – | – | – |
| Cc1cc(C)nc(NS(=O)(=O)c2ccc(Nc3cc4c(-c5ccc6c(cnn6CC(C)(C)O)c5C)nccc4cn3)cc2)c1 [Ex 818, N-(4,6-dimethylpyridin-2-yl)-4-((5-(1-(2-hydroxy-2-methylpropyl)-4-methyl-1H-indazol-5-yl)-2,6-naphthyridin-3-yl)amino)benzenesulfonamide] | < 6.60 | – | – | – | > 7.60 | 6.60 to 7.60 | – | 6.60 to 7.60 |

The next lines start with the values.

| pIC50 (CDK1/CCNB1; [1]) | pIC50 (CDK2/CCNE1; [2]) | pIC50 (CDK6/CCND1; [3]) | pIC50 (CDK4/CCND3; [4]) | pIC50 (CDK2/CCNE1; [5]) | pIC50 (CDK6/CCND1; [6]) | pIC50 (CDK1/CCNB1; [7]) | pIC50 (CDK4/CCND3; [8]) | SMILES |
| --- | --- | --- | --- | --- | --- | --- | --- | --- |
| < 6.60 | – | < 6.60 | < 6.60 | > 7.60 | – | – | – | Cc1cccc(NS(=O)(=O)c2ccc(Nc3cc4c(-c5ccc6c(cnn6CC(C)(C)O)c5C)nccc4cn3)cc2)c1 [Ex 807, 4-((5-(1-(2-hydroxy-2-methylpropyl)-4-methyl-1H-indazol-5-yl)-2,6-naphthyridin-3-yl)amino)-N-(m-tolyl)benzenesulfonamide] |
| < 6.60 | – | < 6.60 | < 6.60 | > 7.60 | – | – | – | Cc1c(-c2nccc3cnc(Nc4ccc(S(=O)(=O)Nc5ccccc5)cc4)cc23)ccc2c1cnn2CC(C)(C)O [Ex 809, 4-((5-(1-(2-hydroxy-2-methylpropyl)-4-methyl-1H-indazol-5-yl)-2,6-naphthyridin-3-yl)amino)-N-phenylbenzenesulfonamide] |
| < 6.60 | – | < 6.60 | < 6.60 | > 7.60 | – | – | – | COc1cccc(NS(=O)(=O)c2ccc(Nc3cc4c(-c5ccc6c(cnn6CC(C)(C)O)c5C)nccc4cn3)cc2)n1 [Ex 812, 4-((5-(1-(2-hydroxy-2-methylpropyl)-4-methyl-1H-indazol-5-yl)-2,6-naphthyridin-3-yl)amino)-N-(6-methoxypyridin-2-yl)benzenesulfonamide] |
| < 6.60 | – | – | – | > 7.60 | 6.60 to 7.60 | – | 6.60 to 7.60 | Cc1cccc(NS(=O)(=O)c2ccc(Nc3cc4c(-c5ccc6c(cnn6CC(C)(C)O)c5C)nccc4cn3)cc2)n1 [Ex 817, 4-((5-(1-(2-hydroxy-2-methylpropyl)-4-methyl-1H-indazol-5-yl)-2,6-naphthyridin-3-yl)amino)-N-(6-methylpyridin-2-yl)benzenesulfonamide] |
| < 6.60 | 6.60 to 7.60 | < 6.60 | < 6.60 | – | – | – | – | Cc1c(-c2nccc3cnc(Nc4ccc(NS(=O)(=O)c5cccc6nsnc56)cc4)cc23)ccc2c1cnn2CC(C)(C)O [Ex 819, N-(4-((5-(1-(2-hydroxy-2-methylpropyl)-4-methyl-1H-indazol-5-yl)-2,6-naphthyridin-3-yl)amino)phenyl)benzo[c][1,2,5]thiadiazole-4-sulfonamide] |
| < 6.60 | 6.60 to 7.60 | < 6.60 | < 6.60 | – | – | – | – | Cc1c(-c2nccc3cnc(Nc4ccc(NS(=O)(=O)c5cccc6nn(C)cc56)cc4)cc23)ccc2c1cnn2CC(C)(C)O [Ex 820, N-(4-((5-(1-(2-hydroxy-2-methylpropyl)-4-methyl-1H-indazol-5-yl)-2,6-naphthyridin-3-yl)amino)phenyl)-2-methyl-2H-indazole-4-sulfonamide] |
| < 6.60 | – | < 6.60 | < 6.60 | > 7.60 | – | – | – | Cc1c(-c2nccc3cnc(Nc4ccc(NS(=O)(=O)c5cccc6nonc56)cc4)cc23)ccc2c1cnn2CC(C)(C)O [Ex 821, N-(4-((5-(1-(2-hydroxy-2-methylpropyl)-4-methyl-1H-indazol-5-yl)-2,6-naphthyridin-3-yl)amino)phenyl)benzo[c][1,2,5]oxadiazole-4-sulfonamide] |
| < 6.60 | – | < 6.60 | < 6.60 | > 7.60 | – | – | – | Cc1c(-c2nccc3cnc(Nc4ccc(NS(=O)(=O)c5cncc(Cl)c5)cc4)cc23)ccc2c1cnn2CC(C)(C)O [Ex 822, 5-chloro-N-(4-((5-(1-(2-hydroxy-2-methylpropyl)-4-methyl-1H-indazol-5-yl)-2,6-naphthyridin-3-yl)amino)phenyl)pyridine-3-sulfonamide] |
| – | – | – | – | > 7.60 | 6.60 to 7.60 | 6.60 to 7.60 | 6.60 to 7.60 | Cc1ccc(S(=O)(=O)Nc2ccc(Nc3cc4c(-c5ccc6c(cnn6CC(C)(C)O)c5C)nccc4cn3)cc2)cn1 [Ex 823, N-(4-((5-(1-(2-hydroxy-2-methylpropyl)-4-methyl-1H-indazol-5-yl)-2,6-naphthyridin-3-yl)amino)phenyl)-6-methylpyridine-3-sulfonamide] |
| < 6.60 | 6.60 to 7.60 | < 6.60 | < 6.60 | – | – | – | – | Cc1c(-c2nccc3cnc(Nc4ccc(NS(=O)(=O)c5cnn(-c6ccccn6)c5)cc4)cc23)ccc2c1cnn2CC(C)(C)O [Ex 824, N-(4-((5-(1-(2-hydroxy-2-methylpropyl)-4-methyl-1H-indazol-5-yl)-2,6-naphthyridin-3-yl)amino)phenyl)-1-(pyridin-2-yl)-1H-pyrazole-4-sulfonamide] |
